Source: US20230039836A1, “AROMATIC SULPHONAMIDES DERIVATIVES THAT INHIBITS PDI A3, THEIR SYNTHESIS AND USE” (Uniwersytet Jagiellonski, priority 2020, published 2023)

Columns and labels:
[1] = biological target: T1, PDI A1 (Homo sapiens, UniProt P07237); test: Insulin turbidometric assay, inhibition of PDI A1; type: biochemical; details: insulin reduction, turbidity at 650 nm, 60 min incubation at 37° C.; read-out: Inhibition of PDI A1 (EC 50)
T1 construct: purchased Mybiosource; host or cells: E. coli
Description: The inhibitory effects compounds of invention on activity of PDI A1 was assess based on the insulin turbidometric assay. Enzymatic activity of PDIA1 was confirmed by measuring the turbidity increase at 650 nm due to insulin reduction. The assay mixture was prepared by addition 10 ug/ml PDIA1 (E.coli recombinant protein; Mybiosource), 0.1 mM phosphate buffer (pH7.6), 1 mM EDTA, 0.087 mM DTT and with or without tested compound and was incubated for 60 min, at 37° C. Reaction was started by addition insulin and DTT. Final concentration of insulin and DTT in assay mixture was 0.15 mM and 0.174 mM, respectively. Turbidity was detected at 650 nm against reference samples without PDI A1s. The measurements were performed at 650 nm using 120-s recordings.

[2] = test system: MCF-7 (human breast adenocarcinoma, estrogen-positive); test: MTT antiproliferative assay, 48 h; type: cell-based; details: Homo sapiens, MCF7, 48-hour exposition, read-out: Cytotoxicity, IC50, µM MCF-7
Description: (§1) About 2000-4000 cells per well (depending on line nature) were placed in 96-well plates and after 24 h compounds were added to the wells. Untreated cells were used as a control. The plates were incubated for 48 h, 37° C., 5% CO2. The number of surviving cells was determined using 3-(4,5-dimethylthiazol-2-yl)-2,5-diphenyltetrazolinium bromide (MTT). MTT-test: after incubating culture medium was removed and 200 µL fresh medium with 20 µL MTT (2 mg/mL in HBSS) was added in each well of the plate. After incubation (3 hr., 37° C., 5% CO2), the medium with MTT was removed and 200 µL DMSO were added at once to each sample. The samples were tested at 540 nm on Thermo Scientific Multiskan EX microplate photometer. The half-maximal inhibitory concentration (IC50) of each compound was calculated using Graph Pad Prism® 3.0.

[3] = test system: Caco-2 (human colon adenocarcinoma); test: MTT antiproliferative assay, 48 h; type: cell-based; details: Homo sapiens, Caco-2, 48-hour exposition, read-out: Cytotoxicity, IC50, µM CaCo-2
Description: as §1

[4] = test system: HT-1080 (human fibrosarcoma); test: MTT antiproliferative assay, 48 h; type: cell-based; details: 48-hour exposition, read-out: Cytotoxicity, IC50, µM HT-1080
Description: as §1

[5] = test system: MDA-MB-231 (human mammary breast adenocarcinoma); test: MTT antiproliferative assay, 48 h; type: cell-based; details: Homo sapiens, MDA-MB-231, 48-hour exposition, read-out: Cytotoxicity, IC50, µM MDA-MB-231
Description: as §1

[6] = test system: Lewis Lung Carcinoma (LLC); test: Murine model of Lewis Lung Carcinoma; type: in vivo, mice; details: in vivo, FIG. 5; for Effect on animal weight: no evident toxicity
Description: To confirm anticancer activity of selected compounds of invention, PDI A1-inhibitors in vivo, selected compounds of invention were tested in the murine model of Lewis Lung Carcinoma (LLC). The Lewis Lung Carcinoma (LLC) cell line was obtained from the ATCC collection and was cultured in a humidified atmosphere of 5% CO2 at 37° using Dulbecco’s modified Eagle’s medium (DMEM) that contained 10% bovine serum (Sigma). Female (6-8 weeks old) C57BL/6 mice (purchased from Envigo RMS. BV., Nederland) were acclimated for one week and were fed with animal chow and water ad libitum. The C57BL/6 mice were injected s.c. with 0.5 × 10^5 LLC cells per mice in 100 µL PBS. Compounds were dissolved in DMSO and then 0.9% NaCl (DMSO final concentration 1%) were added. In each treatment group, i.p. injections of 100 µl compound were started on 1 day after tumor inoculation. Control animals injected with equal volume of 0.9% NaCl with 1% DMSO administered in the same schedule as other groups. Tumor larger radius (a) and smaller radius (b) were measured by calipers. The tumor volume (Tv) was calculated according the following formulaTv = V=4 • ab2/3. The mice in control group were sacrificed 17 days after tumor establishment. Tumor tissues were dissected, weighed and frozen in OCT compound.

T1 sequence (P07237 18-508, species assumed): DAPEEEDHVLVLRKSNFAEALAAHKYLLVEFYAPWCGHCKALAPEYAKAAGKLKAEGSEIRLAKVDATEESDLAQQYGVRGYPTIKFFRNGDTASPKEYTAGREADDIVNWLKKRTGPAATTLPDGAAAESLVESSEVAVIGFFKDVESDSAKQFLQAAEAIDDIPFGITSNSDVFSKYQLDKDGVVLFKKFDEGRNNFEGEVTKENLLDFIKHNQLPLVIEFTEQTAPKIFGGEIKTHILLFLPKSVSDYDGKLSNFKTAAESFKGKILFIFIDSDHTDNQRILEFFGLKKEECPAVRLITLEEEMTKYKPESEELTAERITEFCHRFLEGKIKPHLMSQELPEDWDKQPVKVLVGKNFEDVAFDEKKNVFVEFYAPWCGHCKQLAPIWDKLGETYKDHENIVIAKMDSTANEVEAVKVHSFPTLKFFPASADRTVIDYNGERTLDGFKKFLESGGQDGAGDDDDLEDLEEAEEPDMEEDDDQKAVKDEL

Compound	EC50 [1] [µM]	IC50 [2] [µM]	IC50 [3] [µM]	IC50 [5] [µM]	other results
Cc1ccc(S(=O)(=O)N2CC2C(N)=O)cc1 (stereo not drawn) [Compound C-3220, 1-(p-Tolylsulfonyl)aziridine-2-carboxamide]	> 200	–	–	–	–
COC(=O)C1CN1S(=O)(=O)c1ccc(C(F)(F)F)cc1 (stereo not drawn) [Compound C-3256, Methyl 1-[4-(trifluoromethyl)phenyl]sulfonylaziridine-2-carboxylate]	0.5	–	–	–	–
Cc1ccc(S(=O)(=O)N2CC2C=O)cc1 (stereo not drawn) [Compound C-3262, 1-(p-Tolylsulfonyl)aziridine-2-carbaldehyde]	160	7.2 ± 0.8	13.5 ± 0.8	6.8 ± 0.8	IC50 [4]: 3.8 ± 0.3 µM
CC(=O)C1CN1S(=O)(=O)c1ccc(C)cc1 (stereo not drawn) [Compound C-3263, 1-[1-(p-Tolylsulfonyl)aziridin-2-yl]ethanone]	140	17 ± 0.2	29 ± 0.8	9.1 ± 0.5	IC50 [4]: 7.6 ± 0.2 µM
CCCCCCCCCCCCc1ccc(S(=O)(=O)N2CC2C(=O)OC)cc1 (stereo not drawn) [Compound C-3270, Methyl 1-(4-dodecylphenyl)sulfonylaziridine-2-carboxylate]	0.8	–	–	–	–
CCCCOc1ccc(S(=O)(=O)N2CC2C(=O)OC)cc1 (stereo not drawn) [Compound C-3271, Methyl 1-(4-butoxyphenyl)sulfonylaziridine-2-carboxylate]	1	–	–	–	–
CCCCc1ccc(S(=O)(=O)N2CC2C(C)=O)cc1 (stereo not drawn) [Compound C-3272, 1-[1-(4-Butylphenyl)sulfonylaziridin-2-yl] ethanone]	0.5	26 ± 0.4	57 ± 6	8.4 ± 0.9	IC50 [4]: 4.5 ± 0.9 µM
CCCCc1ccc(S(=O)(=O)N2CC2C=O)cc1 (stereo not drawn) [Compound C-3273, 1-(4-Butylphenyl)sulfonylaziridine-2-carbaldehyde]	3	92 ± 2	56 ± 12	35 ± 3	IC50 [4]: 31 ± 0.9 µM
CCCCCc1ccc(S(=O)(=O)N2CC2C(=O)OC)cc1 (stereo not drawn) [Compound C-3281, Methyl 1-(4-pentylphenyl)sulfonylaziridine-2-carboxylate]	–	–	–	–	Effect on tumour volume [6]: diminished tumour volume; Effect on animal weight [6]: did not modified animal weight
CCCCCCCc1ccc(S(=O)(=O)N2CC2C(=O)OC)cc1 (stereo not drawn) [Compound C-3288, Methyl 1-(4-heptylphenyl)sulfonylaziridine-2-carboxylate]	0.4	–	–	–	–
COC(=O)C1CN1S(=O)(=O)c1ccc(C(C)(C)C)cc1 (stereo not drawn) [Compound C-3290, Methyl 1-(4-tert-butylphenyl)sulfonylaziridine-2-carboxylate]	0.4	29 ± 4	–	–	–
COC(=O)C1CN1S(=O)(=O)c1ccc(-c2ccccc2)cc1 (stereo not drawn) [Compound C-3291, Methyl 1-(4-phenylphenyl)sulfonylaziridine-2-carboxylate]	0.4	–	–	–	–
CCCc1ccc(S(=O)(=O)N2CC2C(=O)OC)cc1 (stereo not drawn) [Compound C-3299, Methyl 1-(4-propylphenyl)sulfonylaziridine-2-carboxylate]	0.8	–	–	–	–
COC(=O)C1CN1S(=O)(=O)c1ccc(NC(C)=O)cc1 (stereo not drawn) [Compound C-3308, Methyl 1-(4-acetamidophenyl)sulfonylaziridine-2-carboaylate]	18	485 ± 32	100 ± 5	> 500	IC50 [4]: 120 ± 6 µM
COC(=O)C1CN1S(=O)(=O)c1cccc2ccccc12 (stereo not drawn) [Compound C-3311, Methyl 1-(1-naphthylsulfonyl)aziridine-2-carboxylate]	5	–	–	–	–
Cc1ccc(S(=O)(=O)N2CC2C#N)cc1 (stereo not drawn) [Compound C-3314, 1-(p-Tolylsulfonyl)aziridine-2-carbonitrile]	4.1	206 ± 21	14 ± 0.8	104 ± 3	IC50 [4]: 4.5 ± 1 µM

Compound	EC50 [1] [µM]	IC50 [2] [µM]	IC50 [3] [µM]	IC50 [5] [µM]	other results
COC(=O)C1CN1S(=O)(=O)c1ccccc1C (stereo not drawn) [Compound C-3320, Methyl 1-(o-tolylsulfonyl)aziridine-2-carboxylate]	–	–	–	380 ± 15	–
NC(=O)C1CN1S(=O)(=O)c1ccc(C(F)(F)F)cc1 (stereo not drawn) [Compound C-3324, 1-[4-(Trifluoromethyl)phenyl] sulfonylaziridine-2-carboxamide]	–	156 ± 9	27 ± 3	102 ± 12	IC50 [4]: 510 ± 3 µM
COC(=O)C1CN1S(=O)(=O)c1ccc2cc(OC)ccc2c1 (stereo not drawn) [Compound C-3327, Methyl 1-[(6-methoxy-2-naphthyl)sulfonyl]aziridine-2-carboxylate]	–	–	150 ± 10	–	–
COC(=O)C1CN1S(=O)(=O)c1ccc2cc(C)ccc2c1 (stereo not drawn) [Compound C-3329, Methyl 1-[(6-methyl-2-naphthyl)sulfonyl]aziridine-2-carboxylate]	–	–	–	–	Effect on tumour volume [6]: diminished tumour volume; Effect on animal weight [6]: did not modified animal weight
COC(=O)C1CN1S(=O)(=O)c1ccco1 (stereo not drawn) [Compound C-3346, Methyl 1-(2-furylsulfonyl)aziridine-2-carboxylate]	> 200	458 ± 6	17 ± 2	> 200	IC50 [4]: 169 ± 11 µM
CN(C)C(=O)C1CN1S(=O)(=O)c1ccc(N(C)C)cc1 (stereo not drawn) [Compound C-3357, 1-[4-(Dimethylamino)phenyl] sulfonyl-N,N-dimethyl-aziridine-2-carboxamide]	–	295 ± 9	61 ± 3	25 ± 6	IC50 [4]: 30 ± 1 µM
CCCCc1ccc(S(=O)(=O)N2CC2C(=O)N(C)C)cc1 (stereo not drawn) [Compound C-3362, 1-(4-Butylphenyl)sulfonyl-N,N-dimethyl-aziridine-2-carboxamide]	0.5	–	–	–	–
CCCCCCc1ccc(S(=O)(=O)N2CC2C(=O)N(C)C)cc1 (stereo not drawn) [Compound C-3369, 1-(4-Hexylphenyl)sulfonyl-N,N-dimethyl-aziridine-2-carboxamide]	0.04	–	–	–	–
CN(C)C(=O)C1CN1S(=O)(=O)c1cccc2cc(N(C)C)ccc12 (stereo not drawn) [Compound C-3377, 1-[[6-(Dimethylamino)-1-naphthyl]sulfonyl]-N,N-dimethylaziridine-2-carboxamide]	–	4.8 ± 0.1	–	–	–
CN(C)C(=O)C1CN1S(=O)(=O)c1ccc(N(C)C)c2ccccc12 (stereo not drawn) [Compound C-3385, 1-[[4-(Dimethylamino)-1-naphthyl]sulfonyl] -N,N-dimethylaziridine-2-carboxamide]	0.7	–	–	–	–
COC(=O)C1CN1S(=O)(=O)c1ccc2cc(N(C)C)ccc2c1 (stereo not drawn) [Compound C-3397, Methyl 1-[[6-(dimethylamino)-2-naphthyl]sulfonyl]aziridine-2-carboxylate]	–	–	–	38 ± 2	–
CN(C)C(=O)C1CN1S(=O)(=O)c1ccc(F)cc1F (stereo not drawn) [Compound C-3403, 1-(2,4-Difluorophenyl)sulfonyl-N,N-dimethyl-aziridine-2-carboxamide]	12.3	–	–	–	–
CCCCCCc1ccc(S(=O)(=O)N2CC2C(=O)N2CCOCC2)cc1 (stereo not drawn) [Compound C-3517, [1-(4-Hexylphenyl)sulfonylaziridin-2-yl]-morpholino-methanone]	–	–	–	12 ± 1	–
CC(C)(C)c1ccc(S(=O)(=O)N2CC2C(N)=O)cc1 (stereo not drawn) [Compound C-3591, 1-(4-tert-Butylphenyl)sulfonylaziridine-2-carboxamide]	11	–	–	–	–
CN(C)C(=O)C1CN1S(=O)(=O)c1ccc(C(C)(C)C)cc1 (stereo not drawn) [Compound C-3594, 1-(4-tert-Butylphenyl)sulfonyl-N,N-dimethyl-aziridine-2-carboxamide]	26	–	–	–	–
Cc1ccc(S(=O)(=O)N2CC2C(=O)O)cc1 (stereo not drawn) [Compound C-3612, Lithium 1-tosylaziridine-2-carboxylate]	54.4	–	–	–	–
